# How the values were obtained:
# [1] = Half life in Sprague-Dawley rat at 1 mg/kg, iv by LC-MS/MS analysis; type: ADME, organism-based; conditions: in vivo
# [2] = Clearance in Sprague-Dawley rat at 1 mg/kg, iv by LC-MS/MS analysis; type: ADME, organism-based; conditions: in vivo
# [3] = Volume of distribution at steady state in Sprague-Dawley rat at 1 mg/kg, iv by LC-MS/MS analysis; type: ADME, organism-based; conditions: in vivo, read-out: Vdss
# [4] = AUC (0 to infinity) in Sprague-Dawley rat at 1 mg/kg, iv by LC-MS/MS analysis; type: ADME, organism-based; set-up: dose 1 mg/kg, time infinity, route intravenous; conditions: in vivo
# [5] = Half life in Sprague-Dawley rat at 5 mg/kg, po by LC-MS/MS analysis; type: ADME, organism-based; conditions: in vivo
# [6] = Cmax in Sprague-Dawley rat at 5 mg/kg, po by LC-MS/MS analysis; type: ADME, organism-based; set-up: dose 5 mg/kg, route oral; conditions: in vivo
# [7] = AUC (0 to infinity) in Sprague-Dawley rat at 5 mg/kg, po by LC-MS/MS analysis; type: ADME, organism-based; set-up: dose 5 mg/kg, route oral, time infinity; conditions: in vivo
# [8] = Oral bioavailability in Sprague-Dawley rat at 5 mg/kg by LC-MS/MS analysis; type: ADME, organism-based; conditions: in vivo
# [9] = Drug level in tumor of nude BALB/c mouse xenografted with human HCT116 cells at 20 mg/kg, po administered as single dose measured after 48 hrs by LC-MS/MS analysis; type: ADME, organism-based, Neoplasm; conditions: read-out: Drug uptake
compound,measurement,setting,value
COc1ncc(-c2ccc3ncc(-c4nnc(CCN5CCN(C)CC5)o4)n3c2)cc1NS(=O)(=O)c1ccc(F)cc1F,half-life,[1],4.71 h
same,clearance,[2],5.66 mL/min/kg
same,Vd,[3],0.69 L/kg
same,AUC(0-inf),[4],2960 ng·h/mL
same,half-life,[5],7.94 h
same,Cmax,[6],553 ng/mL
same,AUC(0-inf),[7],3960 ng·h/mL
same,bioavailability,[8],26.8%
same,concentration at 48 h,[9],600 nM
